According to patent US20110009266A1, “Herbicidal Compositions Comprising Pyroxasulfone” (BASF SE, priority 2008, published 2011):
Read-outs that look alike come from different tables or passages of the source.

What was measured:
Type in all cases: in vivo
[1] = system: GALAP (Galium aparine, cleaver); experiment: greenhouse herbicidal activity on Galium aparine; settings: Post-Emergence, 20 DAT
Text: (§1) For the post-emergence treatment, the test plants were first grown to a height of 3 to 20 cm, depending on the plant habit, and only then treated. Here, the herbicidal compositions were suspended or emulsified in water as distribution medium and sprayed using finely distributing nozzles.
(§2) The respective herbicides A and/or safener were formulated as 10% by weight strength suspension concentrate and introduced to the spray liquor with the amount of solvent system used for applying the active compound. Herbicide B and/or safener were used as commercially available formulations and introduced to the spray liquor with the amount of solvent system used for applying the active compound. In the examples, the solvent used was water.
(§3) 4-(3-trifluoromethylphenoxy)-2-(4-trifluoromethylphenyl)-pyrimidine was used as an aqueous suspension concentrate having an active ingredient concentration of 200 g/l.
(§4) The test period extended over 21 days. During this time, the plants were tended, and their response to the treatments with active compound was evaluated.
(§5) The evaluation for the damage caused by the chemical compositions was carried out using a scale from 0 to 100%, compared to the untreated control plants. Here, 0 means no damage and 100 means complete destruction of the plants.
(§6) The value E, which is to be expected if the activity of the individual compounds is just additive, was calculated using the method of S. R. Colby (1967) “Calculating synergistic and antagonistic responses of herbicide combinations”, Weeds 15, p. 22 ff.
(§7) where X=effect in percent using herbicide A at an application rate a; • Y=effect in percent using herbicide B at an application rate b; • E=expected effect (in %) of A+B at application rates a+b.
(§8) If the value observed in this manner is higher than the value E calculated according to Colby, a synergistic effect is present.

[2] = system: LOLMU (Lolium multiflorum, italian ryegrass); experiment: greenhouse herbicidal activity on Lolium multiflorum; settings: Post-Emergence; for inhibition at 13 g/ha / inhibition at 50 g/ha: Lolium multiflorum; for inhibition at 50 g/ha: 50 g ai/ha
Text: as §1, §2
(§9) Picolinafen was used as a commercial wettable granule formulation having an active ingredient content of 75% by weight.
as §3, §4, §5, §6, §7, §8

[3] = system: ALOMY (Alopecurus myosuroides, blackgrass); experiment: greenhouse herbicidal activity on Alopecurus myosuroides; settings: Post-Emergence, 20 DAT
Text: as §1
(§10) The respective herbicides A and/or safener were formulated as 10% by weight strength suspension concentrate and introduced to the spray liquor with the amount of solvent system used for applying the active compound. Herbicide B and/or safener were used as commercially available formulations and introduced to the spray liquor with the amount of solvent system used for applying the active compound. In the examples, the solvent used was water. […]
(§11) The test period extended over 21 days. During this time, the plants were tended, and their response to the treatments with active compound was evaluated. […]
(§12) The value E, which is to be expected if the activity of the individual compounds is just additive, was calculated using the method of S. R. Colby (1967) “Calculating synergistic and antagonistic responses of herbicide combinations”, Weeds 15, p. […]
as §8

[4] = system: VERPE (Veronica persica, field speedwell); experiment: greenhouse herbicidal activity on Veronica persica; settings: Post-Emergence, 20 DAT
Text: as §1, §10, §11, §12, §8

[5] = system: STEME (Stellaria media, chickweed); experiment: greenhouse herbicidal activity on Stellaria media; settings: Post-Emergence; for inhibition at 50 g/ha: Stellaria media
Text: as §1, §2, §9, §3, §4, §5, §6, §7, §8

[6] = system: PHACA (Phalaris canariensis, canarygrass); experiment: greenhouse herbicidal activity on Phalaris canariensis; settings: Post-Emergence; for inhibition at 50 g/ha / inhibition at 100 g/ha: Phalaris canariensis; for inhibition at 50 g/ha: 50 g ai/ha; for inhibition at 100 g/ha: 100 g ai/ha
Text: as §1, §2, §9, §4, §5, §6, §7, §8

[7] = 192 h, 8 DAT, read-out: observed % activity 8 DAT
[8] = 480 h, 20 DAT, read-out: observed % activity 20 DAT

For FC(F)(F)c1ccc(-c2nccc(Oc3cccc(C(F)(F)F)c3)n2)cc1 [Compound B, 4-(3-trifluoromethylphenoxy)-2-(4-trifluoromethylphenyl)-pyrimidine], the “observed activity in % destruction 20 days after treatment” value ([1]; 31 g ai/ha) was 85%, the “observed activity in % destruction 20 days after treatment” value ([1]; 63 g ai/ha) was 85% and the “observed activity in % destruction 20 days after treatment” value ([2]; 63 g ai/ha, 20 DAT) was 50%. The “observed activity in % destruction 20 days after treatment” value ([2]; 125 g ai/ha, 20 DAT) was 70%, the “observed activity in % destruction 20 days after treatment” value ([3]; 16 g ai/ha) was 15% and the “observed activity in % destruction 20 days after treatment” value ([4]; 31 g ai/ha) was 98%. The “observed activity in % destruction 20 days after treatment” value ([5]; 16 g ai/ha, 20 DAT) was 95% and the “observed activity in % destruction 20 days after treatment” value ([5]; 31 g ai/ha, 20 DAT) was 95%.

With O=C(Nc1ccc(F)cc1)c1cccc(Oc2cccc(C(F)(F)F)c2)n1 [picolinafen] the “observed % activity 8 DAT” value ([6]; 13 g ai/ha, 8 DAT) was 10%, the “observed % activity 20 DAT” value ([6]; 13 g ai/ha, 20 DAT) was 30% and the “observed % activity 8 DAT” value ([2]; 25 g ai/ha, 8 DAT) was 0%. For the same compound, the “observed % activity 20 DAT” value ([2]; 25 g ai/ha, 20 DAT) was 20%, the “observed % activity 8 DAT” value ([5]; 13 g ai/ha, 8 DAT) was 60% and the “observed % activity 20 DAT” value ([5]; 13 g ai/ha, 20 DAT) was 90%.

For Cn1nc(C(F)(F)F)c(CS(=O)(=O)C2=NOC(C)(C)C2)c1OC(F)F [pyroxasulfone, 3-[5-(difluoromethoxy)-1-methyl-3-(trifluoromethyl)pyrazol-4-ylmethylsulfonyl]-4,5-dihydro-5,5-dimethyl-1,2-oxazole], the “observed activity in % destruction 20 days after treatment” value ([1]; 25 g ai/ha) was 90%, the “observed activity in % destruction 20 days after treatment” value ([1]; 50 g ai/ha) was 90% and the “observed activity in % destruction 20 days after treatment” value ([1]; 100 g ai/ha) was 95%. For the same compound, the inhibition at 50 g/ha [6, 7] was 55%, the inhibition at 100 g/ha [6, 7] was 60% and the inhibition at 50 g/ha [6, 8] was 90%. The inhibition at 100 g/ha [6, 8] was 90%, the inhibition at 13 g/ha ([2]; 192 h, 13 g ai/ha, 8 DAT, read-out: observed % activity 8 DAT) was 40% and the inhibition at 50 g/ha [2, 7] was 50%. The inhibition at 13 g/ha ([2]; 480 h, 13 g ai/ha, 20 DAT, read-out: observed % activity 20 DAT) was 50%, the inhibition at 50 g/ha [2, 8] was 85% and the “observed activity in % destruction 20 days after treatment” value ([2]; 13 g ai/ha, 20 DAT (Table 2)) was 50%. The “observed activity in % destruction 20 days after treatment” value ([2]; 25 g ai/ha, 20 DAT (Table 2)) was 75%, the “observed activity in % destruction 20 days after treatment” value ([3]; 100 g ai/ha) was 90% and the “observed activity in % destruction 20 days after treatment” value ([4]; 25 g ai/ha) was 60%. For the same compound, the “observed activity in % destruction 20 days after treatment” value ([5]; 25 g ai/ha, 20 DAT) was 80%, the “observed activity in % destruction 20 days after treatment” value ([5]; 50 g ai/ha, 20 DAT (Table 2)) was 85% and the inhibition at 50 g/ha ([5]; 192 h, 50 g ai/ha, 8 DAT, read-out: observed % activity 8 DAT) was 70%. It also gave an inhibition at 50 g/ha ([5]; 480 h, 50 g ai/ha, 20 DAT, read-out: observed % activity 20 DAT) of 85%.
